Entries after “also recorded” stand apart in the source; their conditions may differ. Read-outs that look alike come from different tables or passages of the source.
What was measured:
Type in all cases: cell-based
rat P2X2 receptors = target: T1, rat P2X2 receptors (Rattus norvegicus, UniProt P49653); assay: Whole-cell patch clamp on HEK293 cells expressing rat P2X2 receptors (ATP-induced currents); conditions: 1 µM; 10 µM ATP every 2 min
T1 construct: expressed in transfected cells; host or cells: HEK293
T1 sequence (P49653 1-472): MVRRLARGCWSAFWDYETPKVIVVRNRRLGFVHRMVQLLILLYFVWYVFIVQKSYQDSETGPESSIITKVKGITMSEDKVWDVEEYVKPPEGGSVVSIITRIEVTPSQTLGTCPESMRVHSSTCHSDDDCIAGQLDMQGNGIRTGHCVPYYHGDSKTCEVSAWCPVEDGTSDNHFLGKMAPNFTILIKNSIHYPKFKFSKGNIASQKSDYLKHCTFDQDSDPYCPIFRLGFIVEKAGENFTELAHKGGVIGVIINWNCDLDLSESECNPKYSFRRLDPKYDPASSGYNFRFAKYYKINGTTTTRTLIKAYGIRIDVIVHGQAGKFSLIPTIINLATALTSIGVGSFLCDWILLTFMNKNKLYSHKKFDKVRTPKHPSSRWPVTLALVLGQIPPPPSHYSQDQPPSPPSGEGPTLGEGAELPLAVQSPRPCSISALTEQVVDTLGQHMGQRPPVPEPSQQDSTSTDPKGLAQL

rat P2X7 receptors = target: T2, rat P2X7 receptors (Rattus norvegicus, UniProt Q64663); assay: Whole-cell patch clamp on HEK293 cells expressing rat P2X7 receptors (ATP-induced currents); conditions: 1 µM; 10 µM ATP every 2 min
T2 construct: expressed in transfected cells; host or cells: HEK293
T2 sequence (Q64663 1-595): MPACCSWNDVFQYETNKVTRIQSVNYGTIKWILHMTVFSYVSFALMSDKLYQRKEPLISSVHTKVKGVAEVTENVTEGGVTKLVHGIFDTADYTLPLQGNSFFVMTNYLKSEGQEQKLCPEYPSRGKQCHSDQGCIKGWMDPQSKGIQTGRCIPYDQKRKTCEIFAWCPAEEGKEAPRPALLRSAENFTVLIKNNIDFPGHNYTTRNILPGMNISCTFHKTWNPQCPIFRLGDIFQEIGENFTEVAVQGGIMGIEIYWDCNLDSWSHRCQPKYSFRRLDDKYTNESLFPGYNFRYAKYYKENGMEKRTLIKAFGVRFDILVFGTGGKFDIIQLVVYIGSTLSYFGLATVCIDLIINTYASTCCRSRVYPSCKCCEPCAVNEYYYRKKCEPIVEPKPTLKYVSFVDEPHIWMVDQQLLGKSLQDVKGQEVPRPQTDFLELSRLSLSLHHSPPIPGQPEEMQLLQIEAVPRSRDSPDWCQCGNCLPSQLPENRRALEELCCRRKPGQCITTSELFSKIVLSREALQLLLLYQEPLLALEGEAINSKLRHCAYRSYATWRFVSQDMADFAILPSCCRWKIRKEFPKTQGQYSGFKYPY

[1] = target: T3, native P2X3Rs in TG neurons (Rattus norvegicus, UniProt P49654); assay: Whole-cell recording of α,β-meATP currents in cultured trigeminal ganglion (TG) neurons; conditions: read-out: inhibition of sustained residual component in TG neurons
T3 construct: endogenous in cells; host or cells: cultured rat trigeminal ganglion (TG) or dorsal root ganglion (DRG) neurons
T3 sequence (P49654 1-397): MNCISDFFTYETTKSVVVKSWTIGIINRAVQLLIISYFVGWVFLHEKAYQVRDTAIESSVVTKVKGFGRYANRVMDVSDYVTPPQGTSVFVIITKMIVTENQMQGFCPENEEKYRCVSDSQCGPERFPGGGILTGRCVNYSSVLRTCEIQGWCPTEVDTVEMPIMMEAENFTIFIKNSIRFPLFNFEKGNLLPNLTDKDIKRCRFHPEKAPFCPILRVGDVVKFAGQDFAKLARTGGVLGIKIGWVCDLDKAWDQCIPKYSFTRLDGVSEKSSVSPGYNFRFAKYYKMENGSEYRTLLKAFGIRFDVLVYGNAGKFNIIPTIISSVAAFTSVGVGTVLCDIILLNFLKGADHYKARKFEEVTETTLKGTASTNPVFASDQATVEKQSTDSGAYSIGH
T3 sequence (P49653 1-472 partner): T1 sequence (P49653 1-472)
Procedure: (§1) Rat trigeminal, nodose, or dorsal root ganglion (TG, NG, and DRG, respectivley) neurons in culture were prepared as described previously.[46],[47] Neurons were plated on poly-L-lysine (0.2 mg/ml)-coated Petri dishes and cultured for one to two days under an atmosphere containing 5% CO2. Cells were used within two days of plating when they lacked processes. HEK293T cells were prepared as reported previously[32],[48] and transfected with rat or human full-length P2X3 cDNA subcloned into pIRES2-EGFP (Clontech, Mountain View, CA, USA).
(§2) TG, NG, DRG, or HEK cells were recorded in the whole-cell configuration while being continuously superfused (at 2 ml/min) with control solution containing (in mM): 152 NaCl, 5 KCl, 1 MgCl2, 2 CaCl2, 10 glucose, and 10 HEPES; pH was adjusted to 7.4 with NaOH and osmolarity was adjusted to 320 mOsM with glucose. […] Responses to selective P2X3R agonist α,β-methylene-ATP (α,β-meATP; resistant to ectoATPase hydrolysis, Sigma-Aldrich) were measured using an EPC-9 amplifier operated by HEKA Patch Master software (HEKA Electronik, Germany). Cells were voltage-clamped at −70 mV. In most cells, series resistance was compensated by 80%. To determine EC50 values, dose-response curves were constructed for α,β-meATP by administering different agonist doses same cells and fitting data to a logistic equation (Origin 8.0, Microcal, Northampton, MA). […]

[2] = target: T4, native P2X3Rs in DRG neurons (Rattus norvegicus, UniProt P49654); assay: Whole-cell recording of α,β-meATP currents in cultured dorsal root ganglion (DRG) neurons; conditions: DRG neuron, read-out: inhibition of peak currents in DRG neurons
T4 construct: effects of AppNHppA on native P2X3Rs in TG, DRG, and NG neurons were investigated; endogenous in cells; host or cells: cultured rat trigeminal ganglion (TG) or dorsal root ganglion (DRG) neurons
T4 sequence (P49654 1-397): T3 sequence (P49654 1-397)
Procedure: as §1, §2

[3] = target: T5, native P2X3Rs in DRG neurons (Rattus norvegicus, UniProt P49654); assay: as above; conditions: DRG neuron, read-out: inhibition of sustained residual component in DRG neurons
T5 construct: effects of AppNHppA on native P2X3Rs in TG, DRG, and NG neurons were investigated; endogenous in cells; host or cells: cultured rat trigeminal ganglion (TG) or dorsal root ganglion (DRG) neurons
T5 sequence (P49654 1-397): T3 sequence (P49654 1-397)
T5 sequence (P49653 1-472 partner): T1 sequence (P49653 1-472)
Procedure: as §1, §2

inhibition at 1 µM [1]: 15 ± 6% | inhibition at 1 µM [2]: 79.2 ± 5.6% | inhibition at 1 µM [3]: 18 ± 6%
Structure (SMILES): Nc1ncnc2c1ncn2[C@@H]1O[C@H](COP(=O)(O)OP(=O)(O)NP(=O)(O)OP(=O)(O)OC[C@H]2O[C@@H](n3cnc4c(N)ncnc43)[C@H](O)[C@@H]2O)[C@@H](O)[C@H]1O [AppNHppA, diadenosine 5′,5′′′-P^1,P^4-(β,γ-imido)tetraphosphate]
HAD or partial agonism effect on P2X2R-mediated currents (rat P2X2 receptors): did not produce any HAD or partial agonism effects; also recorded: does not inhibit | HAD or partial agonism effect on P2X7R-mediated currents (rat P2X7 receptors): did not produce any HAD or partial agonism effects; also recorded: does not inhibit

Reference: paper PMC4955970, “Stable, synthetic analogs of diadenosine tetraphosphate inhibit rat and human P2X3 receptors and inflammatory pain” (Molecular Pain, 2016)
